Measured values from ChEMBL document CHEMBL4507259 (2021).

What was measured:
[1] = target: T1, Alpha-1A adrenergic receptor (Homo sapiens) (UniProt P35348); test: alpha 1A (h) CEREP ligand profiling; details: filed as antagonist, Compound concentration 10.0 uM
T1 sequence (whole entry): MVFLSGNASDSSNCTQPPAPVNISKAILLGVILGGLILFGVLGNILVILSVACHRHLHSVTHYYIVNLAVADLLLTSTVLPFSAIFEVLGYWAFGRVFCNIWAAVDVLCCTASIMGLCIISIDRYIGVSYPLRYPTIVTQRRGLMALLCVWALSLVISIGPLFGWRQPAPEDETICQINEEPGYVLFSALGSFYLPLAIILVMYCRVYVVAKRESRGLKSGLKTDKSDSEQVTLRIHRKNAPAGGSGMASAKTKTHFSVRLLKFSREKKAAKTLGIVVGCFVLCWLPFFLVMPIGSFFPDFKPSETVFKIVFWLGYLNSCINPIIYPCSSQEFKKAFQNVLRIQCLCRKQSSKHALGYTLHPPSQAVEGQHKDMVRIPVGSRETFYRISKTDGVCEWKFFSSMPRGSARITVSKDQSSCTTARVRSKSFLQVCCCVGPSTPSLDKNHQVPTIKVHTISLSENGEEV

[2] = target: Substance-K receptor (Homo sapiens) (UniProt P21452); test: NK2 (h) CEREP ligand profiling; details: filed as agonist, Compound concentration 10.0 uM
[3] = target: Melatonin receptor type 1B (Homo sapiens) (UniProt P49286); test: MT2 (ML1B) (h) CEREP ligand profiling; details: filed as agonist, Compound concentration 10.0 uM
[4] = target: Estrogen receptor (Homo sapiens) (UniProt P03372); test: Estrogen ER alpha (h) CEREP ligand profiling; details: filed as agonist, Compound concentration 10.0 uM
[5] = target: Vasoactive intestinal polypeptide receptor 1 (Homo sapiens) (UniProt P32241); test: VPAC1 (VIP1) (h) CEREP ligand profiling; details: filed as agonist, Compound concentration 10.0 uM
[6] = tested on: Tyrosine-protein kinase ABL1 (Homo sapiens), P00519 [F317L]; details: Compound concentration 1000.0 nM
[7] = tested on: Serine/threonine-protein kinase B-raf (Homo sapiens), P15056 [V600E]; details: Compound concentration 1000.0 nM
[8] = target: Calcium/calmodulin-dependent protein kinase type IV (Homo sapiens) (UniProt Q16566); details: Compound concentration 1000.0 nM
[9] = target: Calcium/calmodulin-dependent protein kinase kinase 1 (Homo sapiens) (UniProt Q8N5S9); details: Compound concentration 1000.0 nM
[10] = target: Dual specificity protein kinase CLK3 (Homo sapiens) (UniProt P49761); details: Compound concentration 1000.0 nM
[11] = target: Casein kinase I isoform gamma-2 (Homo sapiens) (UniProt P78368); details: Compound concentration 1000.0 nM
[12] = target: Mitogen-activated protein kinase kinase kinase 12 (Homo sapiens) (UniProt Q12852); details: Compound concentration 1000.0 nM
[13] = target: Serine/threonine-protein kinase 17B (Homo sapiens) (UniProt O94768); details: Compound concentration 1000.0 nM
[14] = tested on: Epidermal growth factor receptor (Homo sapiens), P00533 [T790M]; details: Compound concentration 1000.0 nM
[15] = tested on: Fibroblast growth factor receptor 3 (Homo sapiens), P22607 [G697C]; details: Compound concentration 1000.0 nM
[16] = tested on: Receptor-type tyrosine-protein kinase FLT3 (Homo sapiens), P36888 [D835Y]; details: Compound concentration 1000.0 nM
[17] = target: G protein-coupled receptor kinase 4 (Homo sapiens) (UniProt P32298); details: Compound concentration 1000.0 nM
[18] = target: Rhodopsin kinase GRK7 (Homo sapiens) (UniProt Q8WTQ7); details: Compound concentration 1000.0 nM
[19] = target: Hormonally up-regulated neu tumor-associated kinase (Homo sapiens) (UniProt P57058); details: Compound concentration 1000.0 nM
[20] = target: Leucine-rich repeat serine/threonine-protein kinase 2 (Homo sapiens) (UniProt Q5S007); details: Compound concentration 1000.0 nM
[21] = target: MAP kinase-activated protein kinase 5 (Homo sapiens) (UniProt Q8IW41); details: Compound concentration 1000.0 nM
[22] = target: Mitogen-activated protein kinase 14 (Homo sapiens) (UniProt Q16539); details: Compound concentration 1000.0 nM
[23] = target: Serine/threonine-protein kinase pim-1 (Homo sapiens) (UniProt P11309); details: Compound concentration 1000.0 nM
[24] = target: Phosphatidylinositol 4-phosphate 5-kinase type-1 gamma (Homo sapiens) (UniProt O60331); details: Compound concentration 1000.0 nM
[25] = target: Membrane-associated tyrosine- and threonine-specific cdc2-inhibitory kinase (Homo sapiens) (UniProt Q99640); details: Compound concentration 1000.0 nM
[26] = target: Ribosomal protein S6 kinase alpha-2 (Homo sapiens) (UniProt Q15349); details: Compound concentration 1000.0 nM
[27] = target: Serine/threonine-protein kinase 33 (Homo sapiens) (UniProt Q9BYT3); details: Compound concentration 1000.0 nM
[28] = target: Tyrosine-protein kinase receptor Tie-1 (Homo sapiens) (UniProt P35590); details: Compound concentration 1000.0 nM
[29] = target: Tyrosine-protein kinase TXK (Homo sapiens) (UniProt P42681); details: Compound concentration 1000.0 nM
[30] = target: Serine/threonine-protein kinase WNK2 (Homo sapiens) (UniProt Q9Y3S1); details: Compound concentration 1000.0 nM
[31] = target: T2, 5-hydroxytryptamine receptor 2C (Homo sapiens) (UniProt P28335); details: Compound concentration 10.0 uM
T2 sequence (whole entry): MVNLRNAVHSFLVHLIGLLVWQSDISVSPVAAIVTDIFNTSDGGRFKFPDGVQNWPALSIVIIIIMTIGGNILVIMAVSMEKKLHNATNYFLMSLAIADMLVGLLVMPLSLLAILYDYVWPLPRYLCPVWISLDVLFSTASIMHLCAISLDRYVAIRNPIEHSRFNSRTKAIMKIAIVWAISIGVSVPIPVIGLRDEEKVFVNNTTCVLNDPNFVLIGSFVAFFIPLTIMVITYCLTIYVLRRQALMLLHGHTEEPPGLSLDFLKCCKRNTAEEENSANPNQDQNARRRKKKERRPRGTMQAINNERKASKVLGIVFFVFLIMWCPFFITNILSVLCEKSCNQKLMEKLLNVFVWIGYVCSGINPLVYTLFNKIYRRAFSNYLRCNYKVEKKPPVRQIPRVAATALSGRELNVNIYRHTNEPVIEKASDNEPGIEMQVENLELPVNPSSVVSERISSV

[32] = target: Beta-1 adrenergic receptor (Homo sapiens) (UniProt P08588); details: Compound concentration 10.0 uM

Calcium/calmodulin-dependent protein kinase type IV (Homo sapiens), sequence (Q16566 whole entry): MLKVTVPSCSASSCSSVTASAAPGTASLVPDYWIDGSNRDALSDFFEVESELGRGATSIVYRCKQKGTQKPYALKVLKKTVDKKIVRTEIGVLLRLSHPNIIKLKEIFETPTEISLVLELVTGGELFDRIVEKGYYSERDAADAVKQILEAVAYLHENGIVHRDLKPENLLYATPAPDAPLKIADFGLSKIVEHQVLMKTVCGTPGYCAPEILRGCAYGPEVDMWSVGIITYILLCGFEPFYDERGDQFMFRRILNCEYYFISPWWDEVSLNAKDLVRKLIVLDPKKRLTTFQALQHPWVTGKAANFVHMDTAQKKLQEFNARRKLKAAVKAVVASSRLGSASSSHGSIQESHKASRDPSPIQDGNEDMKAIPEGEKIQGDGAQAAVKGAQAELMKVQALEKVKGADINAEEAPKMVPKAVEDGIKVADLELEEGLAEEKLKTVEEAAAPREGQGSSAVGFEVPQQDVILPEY
Phosphatidylinositol 4-phosphate 5-kinase type-1 gamma (Homo sapiens), sequence (O60331 whole entry): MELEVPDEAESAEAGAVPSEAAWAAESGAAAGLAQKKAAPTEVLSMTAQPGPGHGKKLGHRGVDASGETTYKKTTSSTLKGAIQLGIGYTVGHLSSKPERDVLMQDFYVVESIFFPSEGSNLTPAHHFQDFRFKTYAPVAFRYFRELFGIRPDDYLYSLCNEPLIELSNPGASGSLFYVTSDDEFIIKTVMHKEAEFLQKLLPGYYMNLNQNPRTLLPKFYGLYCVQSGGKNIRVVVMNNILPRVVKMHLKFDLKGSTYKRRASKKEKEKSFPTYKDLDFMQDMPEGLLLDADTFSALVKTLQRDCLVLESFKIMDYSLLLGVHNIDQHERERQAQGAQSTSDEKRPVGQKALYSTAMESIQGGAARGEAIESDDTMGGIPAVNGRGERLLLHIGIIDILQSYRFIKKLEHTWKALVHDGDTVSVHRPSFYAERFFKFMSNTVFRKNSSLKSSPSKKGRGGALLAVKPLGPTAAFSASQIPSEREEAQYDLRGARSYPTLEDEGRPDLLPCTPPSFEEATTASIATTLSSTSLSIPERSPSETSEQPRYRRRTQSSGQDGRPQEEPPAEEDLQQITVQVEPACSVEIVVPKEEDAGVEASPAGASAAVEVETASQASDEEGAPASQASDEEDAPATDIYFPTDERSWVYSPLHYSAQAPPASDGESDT
Mitogen-activated protein kinase kinase kinase 12 (Homo sapiens), sequence (Q12852 whole entry): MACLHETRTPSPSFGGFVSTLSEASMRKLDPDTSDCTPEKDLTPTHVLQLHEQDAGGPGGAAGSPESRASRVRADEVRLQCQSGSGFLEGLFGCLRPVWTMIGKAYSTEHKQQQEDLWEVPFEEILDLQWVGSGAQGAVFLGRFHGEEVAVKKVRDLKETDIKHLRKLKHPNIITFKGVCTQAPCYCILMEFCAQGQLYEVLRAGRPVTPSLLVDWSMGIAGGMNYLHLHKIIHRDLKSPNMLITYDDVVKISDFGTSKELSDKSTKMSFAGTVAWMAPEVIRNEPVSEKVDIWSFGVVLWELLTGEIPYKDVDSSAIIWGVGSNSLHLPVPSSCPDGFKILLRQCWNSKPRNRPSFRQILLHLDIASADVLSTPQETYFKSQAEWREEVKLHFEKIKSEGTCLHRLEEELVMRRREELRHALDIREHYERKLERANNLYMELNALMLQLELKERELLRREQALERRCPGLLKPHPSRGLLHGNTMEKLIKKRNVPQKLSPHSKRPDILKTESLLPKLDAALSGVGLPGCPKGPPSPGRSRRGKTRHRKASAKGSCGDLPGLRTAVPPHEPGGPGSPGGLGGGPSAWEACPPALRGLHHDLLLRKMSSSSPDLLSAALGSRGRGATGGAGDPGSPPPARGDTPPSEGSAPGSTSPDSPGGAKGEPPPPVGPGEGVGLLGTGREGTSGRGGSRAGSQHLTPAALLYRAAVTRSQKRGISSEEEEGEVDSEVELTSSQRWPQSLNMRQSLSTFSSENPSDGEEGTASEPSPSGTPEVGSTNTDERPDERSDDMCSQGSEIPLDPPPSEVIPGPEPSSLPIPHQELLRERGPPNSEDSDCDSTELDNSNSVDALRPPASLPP
G protein-coupled receptor kinase 4 (Homo sapiens), sequence (P32298 whole entry, looked up): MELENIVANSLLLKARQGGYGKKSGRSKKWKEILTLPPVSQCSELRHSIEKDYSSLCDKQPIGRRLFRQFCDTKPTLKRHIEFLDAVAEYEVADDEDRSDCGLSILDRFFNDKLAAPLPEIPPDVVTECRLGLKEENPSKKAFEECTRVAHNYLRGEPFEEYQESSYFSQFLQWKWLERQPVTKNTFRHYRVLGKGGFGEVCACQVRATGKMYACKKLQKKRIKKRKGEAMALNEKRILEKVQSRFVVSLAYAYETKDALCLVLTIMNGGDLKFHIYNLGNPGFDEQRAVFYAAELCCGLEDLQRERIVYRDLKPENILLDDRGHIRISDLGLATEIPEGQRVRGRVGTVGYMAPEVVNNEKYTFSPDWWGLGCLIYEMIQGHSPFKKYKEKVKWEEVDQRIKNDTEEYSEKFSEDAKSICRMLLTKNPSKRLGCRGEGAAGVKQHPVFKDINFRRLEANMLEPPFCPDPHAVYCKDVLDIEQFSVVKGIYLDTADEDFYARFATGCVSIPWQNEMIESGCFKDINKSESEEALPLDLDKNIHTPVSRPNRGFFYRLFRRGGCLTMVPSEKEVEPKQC
Serine/threonine-protein kinase WNK2 (Homo sapiens), sequence (Q9Y3S1 whole entry): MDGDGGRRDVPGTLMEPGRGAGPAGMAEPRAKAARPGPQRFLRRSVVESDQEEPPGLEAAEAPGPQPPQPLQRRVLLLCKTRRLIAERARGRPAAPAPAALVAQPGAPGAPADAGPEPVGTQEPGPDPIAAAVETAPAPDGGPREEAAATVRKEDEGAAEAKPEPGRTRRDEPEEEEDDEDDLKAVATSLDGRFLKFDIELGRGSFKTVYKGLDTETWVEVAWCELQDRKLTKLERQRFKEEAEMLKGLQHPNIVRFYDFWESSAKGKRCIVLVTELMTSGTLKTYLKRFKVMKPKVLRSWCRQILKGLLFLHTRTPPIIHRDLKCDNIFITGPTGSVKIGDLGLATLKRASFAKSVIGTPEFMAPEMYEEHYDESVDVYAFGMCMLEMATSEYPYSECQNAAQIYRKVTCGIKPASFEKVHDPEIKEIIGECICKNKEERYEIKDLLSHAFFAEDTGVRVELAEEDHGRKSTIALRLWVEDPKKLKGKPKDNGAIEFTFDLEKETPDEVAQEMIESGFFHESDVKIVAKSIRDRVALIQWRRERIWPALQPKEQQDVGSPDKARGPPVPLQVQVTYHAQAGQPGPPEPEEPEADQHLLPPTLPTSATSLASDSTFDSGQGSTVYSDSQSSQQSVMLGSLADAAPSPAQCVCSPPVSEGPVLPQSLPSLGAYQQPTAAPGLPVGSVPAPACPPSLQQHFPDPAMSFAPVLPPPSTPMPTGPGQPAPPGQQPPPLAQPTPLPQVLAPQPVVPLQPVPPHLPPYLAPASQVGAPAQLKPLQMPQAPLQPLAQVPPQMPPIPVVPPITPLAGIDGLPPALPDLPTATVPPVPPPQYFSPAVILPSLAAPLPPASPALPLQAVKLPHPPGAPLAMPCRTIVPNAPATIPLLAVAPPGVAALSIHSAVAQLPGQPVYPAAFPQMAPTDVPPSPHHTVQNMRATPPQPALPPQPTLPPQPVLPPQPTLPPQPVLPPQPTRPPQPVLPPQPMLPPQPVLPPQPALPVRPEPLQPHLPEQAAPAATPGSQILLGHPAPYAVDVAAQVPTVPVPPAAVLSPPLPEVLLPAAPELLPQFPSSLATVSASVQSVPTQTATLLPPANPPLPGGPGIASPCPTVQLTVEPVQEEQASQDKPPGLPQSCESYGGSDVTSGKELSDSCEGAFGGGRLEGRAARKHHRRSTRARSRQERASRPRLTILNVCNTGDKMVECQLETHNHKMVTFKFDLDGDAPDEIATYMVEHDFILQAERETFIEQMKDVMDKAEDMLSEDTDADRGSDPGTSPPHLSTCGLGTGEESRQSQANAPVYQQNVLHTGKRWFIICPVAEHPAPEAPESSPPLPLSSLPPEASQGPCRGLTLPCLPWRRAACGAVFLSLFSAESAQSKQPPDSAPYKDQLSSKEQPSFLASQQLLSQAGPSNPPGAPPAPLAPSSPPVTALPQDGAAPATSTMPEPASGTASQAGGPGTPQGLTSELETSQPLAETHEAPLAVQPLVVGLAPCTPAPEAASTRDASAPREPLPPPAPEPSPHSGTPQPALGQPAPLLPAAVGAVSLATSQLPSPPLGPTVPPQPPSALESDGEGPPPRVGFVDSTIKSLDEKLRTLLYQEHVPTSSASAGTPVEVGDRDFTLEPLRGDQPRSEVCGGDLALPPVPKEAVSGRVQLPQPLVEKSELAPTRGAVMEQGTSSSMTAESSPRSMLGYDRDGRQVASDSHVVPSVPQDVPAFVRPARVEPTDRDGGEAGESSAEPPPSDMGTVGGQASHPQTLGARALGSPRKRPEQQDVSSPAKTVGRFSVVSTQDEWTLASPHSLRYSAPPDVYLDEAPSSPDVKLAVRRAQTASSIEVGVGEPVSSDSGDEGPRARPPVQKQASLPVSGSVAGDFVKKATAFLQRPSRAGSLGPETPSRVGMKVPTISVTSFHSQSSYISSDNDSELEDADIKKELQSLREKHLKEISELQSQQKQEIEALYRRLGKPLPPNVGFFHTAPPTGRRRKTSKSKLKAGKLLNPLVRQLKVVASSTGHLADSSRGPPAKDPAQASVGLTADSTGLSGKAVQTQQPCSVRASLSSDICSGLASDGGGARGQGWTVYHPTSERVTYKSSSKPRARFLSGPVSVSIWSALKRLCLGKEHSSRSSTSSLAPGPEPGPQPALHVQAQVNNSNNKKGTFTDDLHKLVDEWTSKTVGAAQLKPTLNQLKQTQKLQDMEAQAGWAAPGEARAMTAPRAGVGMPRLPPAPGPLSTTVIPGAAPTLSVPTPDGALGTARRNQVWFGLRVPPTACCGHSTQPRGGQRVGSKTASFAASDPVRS

CNC(=O)Nc1ccc2c(c1)CC[C@@]21OC(=O)N(CC(=O)N(Cc2ccc(F)cc2)[C@@H](C)C(F)(F)F)C1=O [A-485]
inactive: inhibition [1] 29% | inhibition [2] 18% | inhibition [3] 12% | inhibition [4] 5% | inhibition [5] -5% | residual activity [6] 77% | residual activity [7] 100% | residual activity [8] 75% | residual activity [9] 70% | residual activity [10] 83% | residual activity [11] 87% | residual activity [12] 100% | residual activity [13] 100% | residual activity [14] 73% | residual activity [15] 79% | residual activity [16] 100% | residual activity [17] 98% | residual activity [18] 83% | residual activity [19] 100% | residual activity [20] 79% | residual activity [21] 82% | residual activity [22] 100% | residual activity [23] 100% | residual activity [24] 100% | residual activity [25] 74% | residual activity [26] 90% | residual activity [27] 100% | residual activity [28] 89% | residual activity [29] 78% | residual activity [30] 100% | inhibition [31] 16.5% | inhibition [32] -5.22%

CNC(=O)Nc1ccc2c(c1)[C@@]1(CC2)OC(=O)N(CC(=O)N(Cc2ccc(F)cc2)[C@@H](C)C(F)(F)F)C1=O [A-486]
inactive: inhibition [1] 16% | inhibition [2] 12% | inhibition [3] 8% | inhibition [4] -10% | inhibition [5] -8% | residual activity [6] 78% | residual activity [7] 96% | residual activity [8] 85% | residual activity [9] 100% | residual activity [10] 84% | residual activity [11] 100% | residual activity [12] 100% | residual activity [13] 77% | residual activity [14] 73% | residual activity [15] 96% | residual activity [16] 96% | residual activity [17] 100% | residual activity [18] 85% | residual activity [19] 100% | residual activity [20] 71% | residual activity [21] 86% | residual activity [22] 100% | residual activity [23] 100% | residual activity [24] 100% | residual activity [25] 92% | residual activity [26] 100% | residual activity [27] 100% | residual activity [28] 100% | residual activity [29] 100% | residual activity [30] 59% | inhibition [31] -3.43% | inhibition [32] -4.4%
